Measurements from US8835429B2, “Pyrimidine compounds, their use as mTOR kinase and Pl3 kinase inhibitors, and their syntheses” (Wyeth LLC, priority 2009, dated 2014).

Legend:
MDA468 = test: In vitro cell growth assay (MTS), MDA468; type: cell-based; settings: 72 h, human breast line MDA468, three days after drug treatment, read-out: MDA IC50
Method: (§1) The cell lines used were human prostate lines LNCap and PC3MM2, human breast lines MDA468 and MCF7, human renal line HTB44 (A498), human colon line HCT116, and human ovarian line OVCAR3. Cells were plated in 96-well culture plates. One day following plating, the inhibitors were added to cells. Three days after drug treatment, viable cell densities were determined by metabolic conversion (by viable cells) of the dye MTS, a well-established cell proliferation assay. The assays were performed using an assay kit purchased from Promega Corp. (Madison, Wis.) following the protocol supplied with the kit. The MTS assay results were read in a 96-well plate reader by measuring absorbance at 490 nm. The effect of each treatment was calculated as percent of control growth relative to the vehicle-treated cells grown in the same culture plate.

LNCap = test: In vitro cell growth assay (MTS), LNCap; type: cell-based; settings: LNCaP, 72 h, human prostate line, three days after drug treatment
Method: as §1

mTOR = mTOR (Homo sapiens, UniProt P42345); test: mTOR enzyme assay (DELFIA, purified FLAG-TOR, His6-S6K substrate); type: biochemical; design: FLAG; settings: 100 μM ATP, 2 hours
Chain of mTOR (P42345 1360-2549 limits assumed): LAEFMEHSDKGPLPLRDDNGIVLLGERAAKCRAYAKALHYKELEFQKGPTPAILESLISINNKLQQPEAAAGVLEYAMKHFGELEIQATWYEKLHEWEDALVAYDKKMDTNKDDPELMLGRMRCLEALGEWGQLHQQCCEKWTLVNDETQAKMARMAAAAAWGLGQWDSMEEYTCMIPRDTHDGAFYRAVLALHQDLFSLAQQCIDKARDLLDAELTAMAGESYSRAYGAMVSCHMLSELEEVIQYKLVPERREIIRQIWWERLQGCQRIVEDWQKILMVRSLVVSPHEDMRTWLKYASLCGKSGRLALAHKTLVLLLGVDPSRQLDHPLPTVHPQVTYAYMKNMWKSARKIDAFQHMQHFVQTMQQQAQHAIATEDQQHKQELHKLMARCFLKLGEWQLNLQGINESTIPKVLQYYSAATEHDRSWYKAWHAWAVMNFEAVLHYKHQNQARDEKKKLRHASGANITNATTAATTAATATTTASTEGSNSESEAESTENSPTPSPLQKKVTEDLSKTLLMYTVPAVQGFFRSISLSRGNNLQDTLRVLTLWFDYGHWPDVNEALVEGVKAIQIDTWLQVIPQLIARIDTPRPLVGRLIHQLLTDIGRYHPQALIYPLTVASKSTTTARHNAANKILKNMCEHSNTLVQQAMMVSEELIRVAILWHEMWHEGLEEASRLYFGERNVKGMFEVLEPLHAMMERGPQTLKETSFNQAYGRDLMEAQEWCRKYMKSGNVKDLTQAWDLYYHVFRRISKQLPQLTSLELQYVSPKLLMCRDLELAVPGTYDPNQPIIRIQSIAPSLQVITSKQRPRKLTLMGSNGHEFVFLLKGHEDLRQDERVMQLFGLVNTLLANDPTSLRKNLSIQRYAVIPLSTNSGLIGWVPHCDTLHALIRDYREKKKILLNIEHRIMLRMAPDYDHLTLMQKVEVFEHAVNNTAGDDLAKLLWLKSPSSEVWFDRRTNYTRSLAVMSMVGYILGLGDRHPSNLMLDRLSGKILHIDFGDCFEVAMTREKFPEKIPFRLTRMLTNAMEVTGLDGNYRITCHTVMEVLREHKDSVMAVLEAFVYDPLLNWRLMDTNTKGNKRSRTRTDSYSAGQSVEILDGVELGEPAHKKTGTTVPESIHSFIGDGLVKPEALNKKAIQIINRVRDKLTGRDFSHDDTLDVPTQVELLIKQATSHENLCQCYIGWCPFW

PI3K-alpha = PI3K-alpha (Homo sapiens, UniProt P42336); test: PI3K-alpha fluorescence polarization assay; type: biochemical; settings: 20 μM PIP2, 25 μM ATP; read-out: PI3Kα IC50
Chain of PI3K-alpha (P42336 whole entry, species assumed): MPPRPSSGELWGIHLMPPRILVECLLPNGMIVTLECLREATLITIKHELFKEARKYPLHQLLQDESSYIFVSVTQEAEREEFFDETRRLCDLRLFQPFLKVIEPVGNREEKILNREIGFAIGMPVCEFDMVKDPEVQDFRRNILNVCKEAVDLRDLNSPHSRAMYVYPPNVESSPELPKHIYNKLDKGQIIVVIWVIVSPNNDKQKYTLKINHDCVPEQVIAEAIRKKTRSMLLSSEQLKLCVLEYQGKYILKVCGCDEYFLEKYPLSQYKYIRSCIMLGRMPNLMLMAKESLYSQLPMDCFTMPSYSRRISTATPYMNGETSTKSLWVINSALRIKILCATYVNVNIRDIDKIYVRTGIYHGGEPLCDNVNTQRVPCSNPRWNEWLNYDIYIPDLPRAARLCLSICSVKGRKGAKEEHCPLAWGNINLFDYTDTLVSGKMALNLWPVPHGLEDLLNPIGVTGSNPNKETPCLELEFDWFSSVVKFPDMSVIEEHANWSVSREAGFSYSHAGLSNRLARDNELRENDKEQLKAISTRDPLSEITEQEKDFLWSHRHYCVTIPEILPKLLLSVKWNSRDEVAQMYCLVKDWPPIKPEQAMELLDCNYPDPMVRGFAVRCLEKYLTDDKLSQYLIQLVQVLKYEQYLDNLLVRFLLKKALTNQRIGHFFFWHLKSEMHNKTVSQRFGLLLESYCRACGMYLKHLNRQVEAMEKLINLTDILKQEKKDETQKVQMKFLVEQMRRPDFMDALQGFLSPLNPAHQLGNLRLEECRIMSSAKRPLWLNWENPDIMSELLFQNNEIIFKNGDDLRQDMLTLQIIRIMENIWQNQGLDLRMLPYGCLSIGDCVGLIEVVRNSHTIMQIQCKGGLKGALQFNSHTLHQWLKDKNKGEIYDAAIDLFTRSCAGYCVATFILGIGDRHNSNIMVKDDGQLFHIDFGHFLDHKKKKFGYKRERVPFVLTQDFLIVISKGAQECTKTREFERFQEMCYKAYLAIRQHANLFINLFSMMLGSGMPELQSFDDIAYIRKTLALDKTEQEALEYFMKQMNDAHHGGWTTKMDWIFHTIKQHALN
Chain of PI3K-alpha (P27986 whole entry partner, species assumed): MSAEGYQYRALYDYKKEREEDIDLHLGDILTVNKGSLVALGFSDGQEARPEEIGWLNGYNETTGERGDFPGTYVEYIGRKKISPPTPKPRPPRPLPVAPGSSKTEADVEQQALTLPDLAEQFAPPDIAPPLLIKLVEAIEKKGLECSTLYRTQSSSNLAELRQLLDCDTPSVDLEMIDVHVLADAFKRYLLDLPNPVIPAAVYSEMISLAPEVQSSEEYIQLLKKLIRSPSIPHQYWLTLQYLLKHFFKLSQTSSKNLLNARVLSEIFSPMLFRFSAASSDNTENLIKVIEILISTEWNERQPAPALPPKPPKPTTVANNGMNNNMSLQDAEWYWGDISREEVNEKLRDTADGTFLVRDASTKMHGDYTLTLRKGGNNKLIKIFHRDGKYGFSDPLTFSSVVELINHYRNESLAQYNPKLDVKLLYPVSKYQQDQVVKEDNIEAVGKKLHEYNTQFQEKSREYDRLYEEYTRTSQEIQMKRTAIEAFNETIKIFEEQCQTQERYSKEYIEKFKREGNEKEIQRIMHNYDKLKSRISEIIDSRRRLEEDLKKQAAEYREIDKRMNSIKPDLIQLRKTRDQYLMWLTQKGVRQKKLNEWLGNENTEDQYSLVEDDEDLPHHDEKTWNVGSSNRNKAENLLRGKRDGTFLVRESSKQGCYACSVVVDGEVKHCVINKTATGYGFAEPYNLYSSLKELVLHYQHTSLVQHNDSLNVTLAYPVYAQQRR
Method: The reaction buffer was 20 mM HEPES, pH 7.5, 2 mM MgCl2, 0.05% CHAPS; and 0.01% βME (added fresh). The stop/detection buffer was 100 mM HEPES, pH 7.5, 4 mM EDTA, 0.05% CHAPS; ATP 20 mM in water; PIP2 (diC8, Echelon, Salt Lake City Utah cat #P-4508) 1 mM in water (MW=856.5). The GST-GRP was 1.75 mg/mL or 1.4 mg/mL in 10% glycerol. The red detector (TAMRA) was 2.5 μM. Nunc 384-well black polypropylene fluorescent plates were used for PI3K assays.
The assay is run by placing 5 μL of diluted enzyme per well, then 5 μL of diluted compound (or 9.5 μL enzyme then 0.5 μL compound in DMSO) is added and mixed. Then, 10 μL substrate is added to start the reaction. The samples are incubated 30-60 minutes, then the reaction is stopped by adding 20 μL stop/detector mix. PI3K is diluted with reaction buffer (e.g., 5 μL or 7.5 μL PI3K into 620 μL reaction buffer), and 5 μL of diluted enzyme is used per well. A 5 μL portion of reaction buffer or of drug diluted in buffer (e.g., 4 μL/100 so final DMSO is 1% in reaction) is added to each. Pipetting up and down mixes the samples. Alternatively, the enzyme can be diluted to 1215 μL. In this case 9.8 μL is added per well and 0.2 μL compound is added in DMSO.
To prepare 1 mL of substrate solution, 955 μL reaction buffer, 40 μL PIP2, and 2.5 μL ATP are mixed. 10 μL of substrate is added to each well to start the reaction. […] The stop/detector mix is prepared by mixing 4 μL red detector and 1.6 μL or 2.0 μL GST-GRP with 1 mL stop buffer, which results in 10 nM probe and 70 nM GST-GRP. 20 μL of the stop/detector mix is added to each well to stop the reaction. The plates are read after 30-90 minutes keeping the red probe solutions dark. For the zero time point, stop/detector mix is added to the enzyme just before adding substrate. For an extra control, stop/detector mix is added to buffer (no enzyme) and substrate or to just buffer (no substrate). […] The recommended reaction has 0.06 μL per 20 μL (0.015 μg/20 μL) or 0.01125 μg/15 μL or 0.75 μg/mL.
Plates are read on machines with filters for TAMRA. The units are mP with no enzyme controls reading app 190-220 mP units. Fully active enzyme reduces fluorescence polarization down to 70-100 mP after 30 minutes. An active compound raises the mP values halfway to control or to 120-150 mP units.

Row | IC50 (LNCap) [nM] | IC50 (mTOR) [nM] | IC50 (PI3K-alpha) [nM] | Structure (SMILES) | IC50 (MDA468) [nM]
1 | 1000 | 19.5 | 3680 | O=C(Nc1ccc(-c2nc(-c3ccccc3)cc(N3CC4CCC(C3)O4)n2)cc1)NC1CC1 [1-cyclopropyl-3-{4-[4-(8-oxa-3-azabicyclo[3.2.1]oct-3-yl)-6-phenylpyrimidin-2-yl]phenyl}urea] | 5000
2 | 1000 | 5.75 | 1810 | CCNC(=O)Nc1ccc(-c2nc(CS(C)(=O)=O)cc(N3CC4CCC(C3)O4)n2)cc1 [1-ethyl-3-(4-{4-[(methylsulfonyl)methyl]-6-(8-oxa-3-azabicyclo[3.2.1]oct-3-yl)pyrimidin-2-yl}phenyl)urea] | 1900
3 | 450 | 11 | 2050 | CCNC(=O)Nc1ccc(-c2nc(-c3ccccc3)cc(N3CC4CCC(C3)O4)n2)cc1 [1-ethyl-3-{4-[4-(8-oxa-3-azabicyclo[3.2.1]oct-3-yl)-6-phenylpyrimidin-2-yl]phenyl}urea] | 1900
4 | 500 | 12 | 810 | CNC(=O)Nc1ccc(-c2nc(NC(C)C)cc(N3CC4CCC(C3)O4)n2)cc1 [1-methyl-3-(4-{4-[(1-methylethyl)amino]-6-(8-oxa-3-azabicyclo[3.2.1]oct-3-yl)pyrimidin-2-yl}phenyl)urea] | 2100

The remaining lines, values behind:

Row | Structure (SMILES) | IC50 (LNCap) [nM] | IC50 (mTOR) [nM] | IC50 (PI3K-alpha) [nM] | IC50 (MDA468) [nM]
5 | CN1CCN(c2ccc(NC(=O)Nc3ccc(-c4nc(-c5ccccc5)cc(N5CC6CCC(C5)O6)n4)cc3)cc2)CC1 [1-[4-(4-methylpiperazin-1-yl)phenyl]-3-{4-[4-(8-oxa-3-azabicyclo[3.2.1]oct-3-yl)-6-phenylpyrimidin-2-yl]phenyl}urea] | 78 | 17.5 | 2430 | 270
6 | O=C(Nc1ccc(CO)cc1)Nc1ccc(-c2nc(-c3ccccc3)cc(N3CC4CCC(C3)O4)n2)cc1 [1-[4-(hydroxymethyl)phenyl]-3-{4-[4-(8-oxa-3-azabicyclo[3.2.1]oct-3-yl)-6-phenylpyrimidin-2-yl]phenyl}urea] | 56 | 2.9 | 102 | 130
7 | CC(C)Nc1cc(N2CC3CCC(C2)O3)nc(-c2ccc(NC(=O)NC3CC3)cc2)n1 [1-cyclopropyl-3-(4-{4-[(1-methylethyl)amino]-6-(8-oxa-3-azabicyclo[3.2.1]oct-3-yl)pyrimidin-2-yl}phenyl)urea] | 700 | 8.2 | 3620 | 4200
8 | CS(=O)(=O)Cc1cc(N2CC3CCC(C2)O3)nc(-c2ccc(NC(=O)NC3CC3)cc2)n1 [1-cyclopropyl-3-(4-{4-[(methylsulfonyl)methyl]-6-(8-oxa-3-azabicyclo[3.2.1]oct-3-yl)pyrimidin-2-yl}phenyl)urea] | 1000 | 5.7 | 4640 | 2500
9 | O=C(Nc1ccc(-c2cc(N3CC4CCC(C3)O4)nc(N3CC4CCC(C3)O4)n2)cc1)NC1CC1 [1-cyclopropyl-3-[4-(2,6-di-8-oxa-3-azabicyclo[3.2.1]oct-3-ylpyrimidin-4-yl)phenyl]urea] | 800 | 38.5 | 3930 | 6000
10 | CC(C)Oc1cc(N2CC3CCC(C2)O3)nc(-c2ccc(NC(=O)NC3CC3)cc2)n1 [1-cyclopropyl-3-{4-[4-(1-methylethoxy)-6-(8-oxa-3-azabicyclo[3.2.1]oct-3-yl)pyrimidin-2-yl]phenyl}urea] | 290 | 4.45 | 7200 | 1800
11 | O=C(Nc1ccc(-c2nc(N3CC4CCC(C3)O4)cc(C(F)(F)F)n2)cc1)NC1CC1 [1-cyclopropyl-3-{4-[4-(8-oxa-3-azabicyclo[3.2.1]oct-3-yl)-6-(trifluoromethyl)pyrimidin-2-yl]phenyl}urea] | 450 | 10.4 | 8160 | 3000
